≈ marks a conversion by molar mass, not a printed value.
What was measured:
Androgen receptor = target: T1, Androgen receptor (Homo sapiens, UniProt P10275); assay: Antagonist activity at androgen receptor LBD expressed in human HUH7 cells coexpressing GAL4 by luciferase reporter gene assay; type: functional, cell-based, Huh-7
T1 sequence (P10275 whole entry): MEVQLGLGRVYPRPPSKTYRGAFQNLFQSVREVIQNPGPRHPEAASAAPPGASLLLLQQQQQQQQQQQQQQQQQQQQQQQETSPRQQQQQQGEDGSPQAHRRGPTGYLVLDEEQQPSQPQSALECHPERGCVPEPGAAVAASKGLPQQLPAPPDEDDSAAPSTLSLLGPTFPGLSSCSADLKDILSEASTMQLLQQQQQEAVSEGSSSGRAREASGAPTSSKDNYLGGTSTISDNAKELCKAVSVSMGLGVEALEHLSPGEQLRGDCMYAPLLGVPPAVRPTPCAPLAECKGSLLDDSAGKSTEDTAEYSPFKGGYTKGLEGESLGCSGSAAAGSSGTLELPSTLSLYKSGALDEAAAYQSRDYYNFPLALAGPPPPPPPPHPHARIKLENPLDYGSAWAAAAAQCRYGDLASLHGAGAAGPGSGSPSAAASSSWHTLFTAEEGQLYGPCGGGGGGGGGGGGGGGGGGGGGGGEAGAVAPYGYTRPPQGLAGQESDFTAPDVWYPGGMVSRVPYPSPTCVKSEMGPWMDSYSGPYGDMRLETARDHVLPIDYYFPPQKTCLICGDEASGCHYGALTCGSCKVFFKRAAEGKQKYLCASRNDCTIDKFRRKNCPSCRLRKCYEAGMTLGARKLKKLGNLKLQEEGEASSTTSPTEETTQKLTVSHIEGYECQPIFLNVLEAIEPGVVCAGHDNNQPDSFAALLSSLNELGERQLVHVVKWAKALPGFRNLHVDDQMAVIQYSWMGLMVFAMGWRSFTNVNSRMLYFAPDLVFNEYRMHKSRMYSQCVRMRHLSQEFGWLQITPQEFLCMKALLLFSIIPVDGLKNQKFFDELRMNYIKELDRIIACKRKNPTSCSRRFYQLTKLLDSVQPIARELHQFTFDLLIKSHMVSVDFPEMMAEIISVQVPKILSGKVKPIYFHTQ

Progesterone receptor = target: T2, Progesterone receptor (Homo sapiens, UniProt P06401); assay: Antagonist activity at progesterone receptor LBD expressed in human HUH7 cells coexpressing GAL4 by luciferase reporter gene assay; type: functional, cell-based, Huh-7
T2 sequence (P06401 whole entry): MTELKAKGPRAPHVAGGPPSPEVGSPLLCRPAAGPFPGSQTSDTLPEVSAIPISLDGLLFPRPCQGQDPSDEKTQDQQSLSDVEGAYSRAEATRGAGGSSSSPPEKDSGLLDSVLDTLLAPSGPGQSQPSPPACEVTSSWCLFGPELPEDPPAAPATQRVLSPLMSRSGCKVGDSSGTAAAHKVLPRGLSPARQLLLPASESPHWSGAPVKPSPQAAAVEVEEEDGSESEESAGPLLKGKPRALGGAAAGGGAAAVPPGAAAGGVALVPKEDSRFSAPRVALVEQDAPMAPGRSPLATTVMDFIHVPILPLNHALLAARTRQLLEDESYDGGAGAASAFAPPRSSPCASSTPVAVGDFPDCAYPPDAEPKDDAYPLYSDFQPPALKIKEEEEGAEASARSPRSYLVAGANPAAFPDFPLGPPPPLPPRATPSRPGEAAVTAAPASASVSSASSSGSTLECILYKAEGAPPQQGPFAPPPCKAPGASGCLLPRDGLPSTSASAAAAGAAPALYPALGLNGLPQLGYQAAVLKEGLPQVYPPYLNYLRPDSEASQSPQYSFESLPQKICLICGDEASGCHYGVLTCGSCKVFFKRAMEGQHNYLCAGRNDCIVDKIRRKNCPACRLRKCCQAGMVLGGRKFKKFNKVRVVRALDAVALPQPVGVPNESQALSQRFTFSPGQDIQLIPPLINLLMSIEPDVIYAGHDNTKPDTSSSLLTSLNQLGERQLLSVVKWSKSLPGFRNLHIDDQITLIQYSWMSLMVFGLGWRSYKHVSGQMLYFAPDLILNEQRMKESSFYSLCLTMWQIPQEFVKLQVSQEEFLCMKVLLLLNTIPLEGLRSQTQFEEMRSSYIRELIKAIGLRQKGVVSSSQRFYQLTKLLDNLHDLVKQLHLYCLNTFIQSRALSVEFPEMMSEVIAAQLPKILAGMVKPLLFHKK

Liver microsomes [1] = assay: Metabolic stability in human liver microsomes assessed as compound remaining; type: ADME, Microsome; note: time not given here
Liver microsomes [2] = assay: Metabolic stability in rat liver microsomes assessed as compound remaining; type: ADME, Microsome; note: time not given here
Cytochrome P450 3A4 = Cytochrome P450 3A4 (Homo sapiens, UniProt P08684); assay: Inhibition of CYP3A4; type: ADME
Cytochrome P450 2C9 = Cytochrome P450 2C9 (Homo sapiens, UniProt P11712); assay: Inhibition of CYP2C9; type: ADME
Cytochrome P450 2D6 = Cytochrome P450 2D6 (Homo sapiens, UniProt P10635); assay: Inhibition of CYP2D6; type: ADME
[3] = Solubility of the compound; type: physicochemical
[4] = target: T3, Mineralocorticoid receptor (Homo sapiens, UniProt P08235)
T3 sequence (P08235 whole entry): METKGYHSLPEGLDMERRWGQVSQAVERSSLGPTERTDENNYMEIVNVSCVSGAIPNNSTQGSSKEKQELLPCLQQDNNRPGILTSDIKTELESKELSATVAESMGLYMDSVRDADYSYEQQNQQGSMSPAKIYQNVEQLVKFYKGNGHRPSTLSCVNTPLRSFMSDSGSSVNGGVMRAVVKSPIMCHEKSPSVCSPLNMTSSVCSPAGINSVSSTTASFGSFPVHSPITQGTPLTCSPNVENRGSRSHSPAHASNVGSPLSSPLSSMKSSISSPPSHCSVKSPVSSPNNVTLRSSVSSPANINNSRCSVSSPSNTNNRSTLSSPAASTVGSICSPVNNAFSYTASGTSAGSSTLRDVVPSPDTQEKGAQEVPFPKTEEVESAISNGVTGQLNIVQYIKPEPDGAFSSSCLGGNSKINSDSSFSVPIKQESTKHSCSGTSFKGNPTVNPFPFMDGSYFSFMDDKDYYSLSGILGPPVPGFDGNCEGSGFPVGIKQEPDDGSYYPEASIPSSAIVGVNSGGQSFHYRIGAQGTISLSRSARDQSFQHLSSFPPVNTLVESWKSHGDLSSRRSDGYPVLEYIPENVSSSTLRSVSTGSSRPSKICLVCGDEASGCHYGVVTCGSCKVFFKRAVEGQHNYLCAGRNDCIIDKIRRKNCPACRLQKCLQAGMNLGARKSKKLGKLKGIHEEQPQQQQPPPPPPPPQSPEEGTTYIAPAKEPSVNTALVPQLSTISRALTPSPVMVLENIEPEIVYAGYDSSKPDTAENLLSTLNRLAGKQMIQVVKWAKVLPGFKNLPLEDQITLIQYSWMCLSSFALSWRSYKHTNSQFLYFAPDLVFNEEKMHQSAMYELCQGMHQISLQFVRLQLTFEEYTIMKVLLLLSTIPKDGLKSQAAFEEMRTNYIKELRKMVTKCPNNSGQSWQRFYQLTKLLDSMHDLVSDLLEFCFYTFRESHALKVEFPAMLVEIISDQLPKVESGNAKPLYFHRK
Description: Antagonist activity at mineralocorticoid receptor LBD expressed in human HUH7 cells coexpressing GAL4 by luciferase reporter gene assay

Sequence of Cytochrome P450 3A4 (P08684 whole entry): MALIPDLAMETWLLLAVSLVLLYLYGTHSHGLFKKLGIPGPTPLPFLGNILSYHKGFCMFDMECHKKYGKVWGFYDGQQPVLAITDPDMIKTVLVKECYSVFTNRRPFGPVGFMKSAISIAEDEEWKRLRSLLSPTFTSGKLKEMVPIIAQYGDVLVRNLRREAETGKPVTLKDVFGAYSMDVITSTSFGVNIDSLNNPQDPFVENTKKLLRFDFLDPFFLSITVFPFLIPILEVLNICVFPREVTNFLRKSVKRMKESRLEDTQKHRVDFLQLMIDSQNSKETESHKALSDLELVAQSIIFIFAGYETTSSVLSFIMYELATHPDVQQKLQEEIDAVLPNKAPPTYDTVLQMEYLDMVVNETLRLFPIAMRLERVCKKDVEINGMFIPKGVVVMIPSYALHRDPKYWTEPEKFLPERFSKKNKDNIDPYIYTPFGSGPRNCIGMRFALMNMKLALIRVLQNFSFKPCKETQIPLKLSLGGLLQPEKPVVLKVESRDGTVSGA
Sequence of Cytochrome P450 2C9 (P11712 whole entry): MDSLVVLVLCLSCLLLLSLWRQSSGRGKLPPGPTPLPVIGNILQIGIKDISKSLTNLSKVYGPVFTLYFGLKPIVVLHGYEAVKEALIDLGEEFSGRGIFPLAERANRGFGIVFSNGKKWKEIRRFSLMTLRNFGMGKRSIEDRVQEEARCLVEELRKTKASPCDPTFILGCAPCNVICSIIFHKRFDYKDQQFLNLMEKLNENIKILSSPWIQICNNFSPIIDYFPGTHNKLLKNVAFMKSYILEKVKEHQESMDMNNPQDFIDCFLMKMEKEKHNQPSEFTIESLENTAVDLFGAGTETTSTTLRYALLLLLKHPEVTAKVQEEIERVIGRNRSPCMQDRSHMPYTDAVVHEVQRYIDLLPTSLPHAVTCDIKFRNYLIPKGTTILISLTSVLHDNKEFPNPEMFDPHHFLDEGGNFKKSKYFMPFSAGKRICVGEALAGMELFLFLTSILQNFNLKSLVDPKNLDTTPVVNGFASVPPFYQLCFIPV
Sequence of Cytochrome P450 2D6 (P10635 whole entry): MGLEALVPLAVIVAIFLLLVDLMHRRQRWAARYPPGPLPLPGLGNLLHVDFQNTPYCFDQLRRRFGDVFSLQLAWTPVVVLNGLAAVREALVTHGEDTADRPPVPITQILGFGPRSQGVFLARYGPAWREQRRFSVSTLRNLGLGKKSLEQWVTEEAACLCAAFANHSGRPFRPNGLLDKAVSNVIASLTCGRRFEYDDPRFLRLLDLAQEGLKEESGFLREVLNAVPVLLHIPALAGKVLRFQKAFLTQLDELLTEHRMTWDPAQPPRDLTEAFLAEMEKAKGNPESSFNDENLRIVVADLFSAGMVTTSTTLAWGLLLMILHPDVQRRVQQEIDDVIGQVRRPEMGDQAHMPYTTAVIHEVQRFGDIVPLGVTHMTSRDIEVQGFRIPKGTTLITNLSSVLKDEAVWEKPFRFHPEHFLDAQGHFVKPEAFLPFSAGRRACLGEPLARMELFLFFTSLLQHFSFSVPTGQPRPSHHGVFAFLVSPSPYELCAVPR

SMILES	IC50 (Androgen receptor)	IC50 (Progesterone receptor)	Stability (Liver microsomes [1])	Stability (Liver microsomes [2])	IC50 (Cytochrome P450 3A4)	IC50 (Cytochrome P450 2C9)	IC50 (Cytochrome P450 2D6)	solubility [3]	IC50 [4]	inhibition (INH) (Cytochrome P450 3A4)	inhibition (INH) (Cytochrome P450 2C9)	inhibition (INH) (Cytochrome P450 2D6)
COC(=O)C1=C(Cn2cncn2)NC(C)=C(C#N)C1c1ccc(F)cc1Cl (stereo not given)	4600 nM	7000 nM	9%	34%	800 nM	100 nM	> 10000 nM	> 5 µM	123 nM	–	–	–
CCCC1=C(C(=O)OC)C(c2ccccc2Cl)C(C#N)=C(C)N1 (stereo not given)	300 nM	200 nM	36%	13%	–	–	–	< 5 µM	64 nM	71%	83%	19%
COC(=O)C1=C(Cn2cnnn2)NC(C)=C(C#N)C1c1ccc(F)cc1Cl (stereo not given)	2700 nM	> 10000 nM	3%	60%	1200 nM	1900 nM	> 10000 nM	31 µM (≈ 12.1 µg/mL)	64 nM	–	–	–

The remaining lines, values ahead:

IC50 (Androgen receptor)	IC50 (Progesterone receptor)	Stability (Liver microsomes [1])	Stability (Liver microsomes [2])	IC50 (Cytochrome P450 3A4)	IC50 (Cytochrome P450 2C9)	IC50 (Cytochrome P450 2D6)	solubility [3]	IC50 [4]	inhibition (INH) (Cytochrome P450 3A4)	inhibition (INH) (Cytochrome P450 2C9)	inhibition (INH) (Cytochrome P450 2D6)	SMILES
3900 nM	> 10000 nM	8%	64%	200 nM	1000 nM	> 10000 nM	5 µM (≈ 1.93 µg/mL)	9 nM	–	–	–	COC(=O)C1=C(Cn2ccnc2)NC(C)=C(C#N)C1c1ccc(F)cc1Cl (stereo not given)
300 nM	900 nM	37%	14%	–	–	–	10 µM (≈ 3.21 µg/mL)	92 nM	40%	44%	0%	COC(=O)C1=C(C)NC(C)=C(C#N)C1c1ccc(F)cc1Cl (stereo not given)

Source: ChEMBL document CHEMBL1212896, “Discovery of novel cyanodihydropyridines as potent mineralocorticoid receptor antagonists” (J Med Chem, 2010)
